Patent US11498899B2, “Nitrone herbicides” (FMC Corporation, priority 2016, dated 2022)

Key:
[1] = tested on: barnyardgrass (Echinochloa crus-galli); test: Test A preemergence, visual injury rating 0-100 (0 no effect, 100 complete control); format: in vivo
[2] = tested on: foxtail, giant (giant foxtail, Setaria faberii); test: Test A preemergence, visual injury rating 0-100; format: in vivo
kochia (Kochia scoparia) [3] = test: Test A preemergence, visual injury rating 0-100; format: in vivo
[4] = tested on: pigweed (Amaranthus retroflexus); test: Test A preemergence, visual injury rating 0-100; format: in vivo
[5] = tested on: ragweed (common ragweed, Ambrosia elatior); test: Test A preemergence, visual injury rating 0-100; format: in vivo
[6] = tested on: ryegrass, Italian (Italian ryegrass, Lolium multiflorum); test: Test A preemergence, visual injury rating 0-100; format: in vivo
[7] = tested on: barnyardgrass (Echinochloa crus-galli); test: Test A postemergence, visual injury rating 0-100; format: in vivo; conditions: 0 to 100 scale
[8] = tested on: blackgrass (Alopecurus myosuroides); test: Test A postemergence, visual injury rating 0-100; format: in vivo; conditions: 0 to 100 scale
corn (Zea mays) = test: Test A postemergence, visual injury rating 0-100; format: in vivo; conditions: 0 to 100 scale
[9] = tested on: foxtail, giant (giant foxtail, Setaria faberii); test: Test A postemergence, visual injury rating 0-100; format: in vivo; conditions: 0 to 100 scale
[10] = tested on: galium (catchweed bedstraw, Galium aparine); test: Test A postemergence, visual injury rating 0-100; format: in vivo; conditions: 0 to 100 scale
kochia (Kochia scoparia) [11] = test: Test A postemergence, visual injury rating 0-100; format: in vivo; conditions: 0 to 100 scale
[12] = tested on: pigweed (Amaranthus retroflexus); test: Test A postemergence, visual injury rating 0-100; format: in vivo; conditions: 0 to 100 scale
[13] = tested on: ragweed (common ragweed, Ambrosia elatior); test: Test A postemergence, visual injury rating 0-100; format: in vivo; conditions: 0 to 100 scale
[14] = tested on: ryegrass, Italian (Italian ryegrass, Lolium multiflorum); test: Test A postemergence, visual injury rating 0-100; format: in vivo; conditions: 0 to 100 scale
[15] = tested on: wheat (Triticum aestivum); test: Test A postemergence, visual injury rating 0-100; format: in vivo; conditions: 0 to 100 scale
[16] = tested on: ducksalad (Heteranthera limosa); test: Test B flooded paddy test, visual rating 0-100; conditions: Flood, 250 g ai/ha, applied to paddy water, rated after 13 to 15 days
[17] = tested on: barnyardgrass (Echinochloa crus-galli); test: Test B flooded paddy test, visual rating 0-100; conditions: Flood, 250 g ai/ha, applied to paddy water, rated after 13 to 15 days
rice (Oryza sativa) = test: Test B flooded paddy test, visual rating 0-100 (0 no effect, 100 complete control); conditions: Flood, 250 g ai/ha, applied to paddy water, rated after 13 to 15 days

Row | Structure (SMILES) | Barnyardgrass plant response rating (0 to 100 scale) ([1]; 125 g ai/ha) | Barnyardgrass plant response rating (0 to 100 scale) ([1]; 500 g ai/ha) | Foxtail, Giant plant response rating (0 to 100 scale) ([2]; 125 g ai/ha) | Foxtail, Giant plant response rating (0 to 100 scale) ([2]; 500 g ai/ha) | Kochia plant response rating (0 to 100 scale) (kochia (Kochia scoparia) [3]; 125 g ai/ha) | Kochia plant response rating (0 to 100 scale) (kochia (Kochia scoparia) [3]; 500 g ai/ha) | Pigweed plant response rating (0 to 100 scale) ([4]; 125 g ai/ha) | Pigweed plant response rating (0 to 100 scale) ([4]; 500 g ai/ha) | Ragweed plant response rating (0 to 100 scale) ([5]; 125 g ai/ha) | Ragweed plant response rating (0 to 100 scale) ([5]; 500 g ai/ha) | Ryegrass, Italian plant response rating (0 to 100 scale) ([6]; 500 g ai/ha) | Barnyardgrass plant response rating ([7]; 125 g ai/ha) | Barnyardgrass plant response rating ([7]; 500 g ai/ha) | Blackgrass plant response rating ([8]; 125 g ai/ha) | Blackgrass plant response rating ([8]; 500 g ai/ha) | Corn plant response rating (corn (Zea mays); 125 g ai/ha) | Corn plant response rating (corn (Zea mays); 500 g ai/ha) | Foxtail, Giant plant response rating ([9]; 125 g ai/ha) | Foxtail, Giant plant response rating ([9]; 500 g ai/ha) | Galium plant response rating ([10]; 125 g ai/ha) | further results
1 | CC1=[N+]([O-])C(C(=O)Nc2cccc(F)c2F)C(c2cc(C(F)(F)F)cc(C(F)(F)F)c2)C1 (racemic) [Compound 110] | 90 | 90 | 90 | 90 | 0 | 20 | 0 | 60 | 50 | 80 | 90 | 40 | 90 | 80 | 90 | 80 | 90 | 80 | 90 | 50 | Galium plant response rating ([10]; 500 g ai/ha): 70; Kochia plant response rating (kochia (Kochia scoparia) [11]; 125 g ai/ha): 0; Kochia plant response rating (kochia (Kochia scoparia) [11]; 500 g ai/ha): 50; Pigweed plant response rating ([12]; 125 g ai/ha): 0; Pigweed plant response rating ([12]; 500 g ai/ha): 20; Ragweed plant response rating ([13]; 125 g ai/ha): 0; Ragweed plant response rating ([13]; 500 g ai/ha): 70; Ryegrass, Italian plant response rating ([14]; 125 g ai/ha): 70; Ryegrass, Italian plant response rating ([14]; 500 g ai/ha): 80; Wheat plant response rating ([15]; 125 g ai/ha): 50; Wheat plant response rating ([15]; 500 g ai/ha): 80; Ducksalad plant response rating (0 to 100 scale) [16]: 0; Barnyardgrass plant response rating (0 to 100 scale) [17]: 0; Rice plant response rating (0 to 100 scale) (rice (Oryza sativa)): 0
2 | CC1=[N+]([O-])C(C(=O)Nc2cccc(F)c2F)C(c2cc(F)cc(Oc3ccc(Cl)nc3)c2)C1 (racemic) [Compound 50] | 50 | 90 | 90 | 90 | 30 | 70 | 0 | 40 | 0 | 0 | 80 | 0 | 50 | 40 | 70 | 0 | 40 | 10 | 50 | 0 | Ryegrass, Italian plant response rating (0 to 100 scale) ([6]; 125 g ai/ha): 0; Galium plant response rating ([10]; 500 g ai/ha): 30; Kochia plant response rating (kochia (Kochia scoparia) [11]; 125 g ai/ha): 0; Kochia plant response rating (kochia (Kochia scoparia) [11]; 500 g ai/ha): 50; Pigweed plant response rating ([12]; 125 g ai/ha): 0; Pigweed plant response rating ([12]; 500 g ai/ha): 60; Ragweed plant response rating ([13]; 125 g ai/ha): 0; Ragweed plant response rating ([13]; 500 g ai/ha): 40; Ryegrass, Italian plant response rating ([14]; 125 g ai/ha): 0; Ryegrass, Italian plant response rating ([14]; 500 g ai/ha): 20; Wheat plant response rating ([15]; 125 g ai/ha): 0; Wheat plant response rating ([15]; 500 g ai/ha): 0; Ducksalad plant response rating (0 to 100 scale) [16]: 0; Barnyardgrass plant response rating (0 to 100 scale) [17]: 0; Rice plant response rating (0 to 100 scale) (rice (Oryza sativa)): 0
